Values joined by “and” are separate entries in the source; they are usually repeats but may differ in a detail not shown here. Identical values can stand only once.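 Compound exposure: 48 hours, 5 concentrations, 96-well plates. The concentration for 50% growth inhibition is given as GI50. TGI: concentration producing complete growth inhibition.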
How the values were obtained:
Test in all cases: DTP human tumour cell line panel, 48 h
[1] = system: NCI-H522 lung
[2] = system: A549 NSCLC
[3] = system: 786-0 renal
[4] = system: SNB-19 CNS
[5] = system: RXF 393 renal
[6] = system: RPMI-8226 leukemia
[7] = system: SK-OV-3 ovarian
[8] = system: OVCAR-5 ovarian
[9] = system: SK-MEL-28 melanoma
[10] = system: DU-145 prostate

Structure (SMILES)	TGI [1]	TGI [2]	TGI [3]	TGI [4]	TGI [5]	TGI [6]	TGI [7]	TGI [8]	TGI [9]	GI50 [1]	GI50 [2]	GI50 [3]	GI50 [4]	GI50 [9]	GI50 [7]	GI50 [6]	GI50 [10]	TGI [10]	GI50 [8]	GI50 [5]
O=c1cccccc1[O-].O=c1cccccc1[O-].O=c1cccccc1[O-].[Sm+3]	> 100 µM	> 100 µM	> 100 µM	> 100 µM	53.6 µM	> 100 µM	> 100 µM	> 100 µM												
COC(=O)C1CCC(=O)N1/C(C)=N/NC(=O)Nc1ccc(Cl)c(Cl)c1 (centres undefined)		> 100 µM	> 100 µM	> 100 µM	> 100 µM	> 100 µM	> 100 µM		> 100 µM											
CC(=O)[O-].[Mn+3].[O-]c1ccc(Cl)cc1C=NCCN=Cc1cc(Cl)ccc1[O-]	> 100 µM	> 100 µM	> 100 µM	> 100 µM			> 100 µM		> 100 µM	> 100 µM	> 100 µM	> 100 µM	> 100 µM	> 100 µM	> 100 µM					
CCOc1ccccc1NC(=O)C1=C(C)NC(C)=C(C(=O)Nc2ccccc2OCC)C1c1ccc([N+](=O)[O-])cc1	> 100 µM	> 100 µM	> 100 µM	> 100 µM	> 100 µM	> 100 µM	> 100 µM	> 100 µM	> 100 µM											
C/C(CC(=O)Nc1cccc([N+](=O)[O-])c1)=N\NC(=O)C[n+]1ccccc1	> 100 µM	> 100 µM	> 100 µM		> 100 µM	> 100 µM	> 100 µM	> 100 µM	> 100 µM											
O=C(CC1=Nc2nnc(-c3nnc4n3C(=O)C(CC(=O)C3CC3)=N4)n2C1=O)C1CC1	> 100 µM	> 100 µM	> 100 µM	> 100 µM	> 100 µM	> 100 µM	> 100 µM	> 100 µM	> 100 µM											
COC(=O)c1sc(=NC(=S)N2CCCCC2)sc1C(=O)OC			> 100 µM	> 100 µM	> 100 µM	> 100 µM	> 100 µM		> 100 µM											
OCCCCC#Cc1ccccc1C#Cc1ccc(C(F)(F)F)cc1	32 µM	27.6 µM	18.1 µM	32.3 µM		48.8 µM	34 µM	31.8 µM	21.7 µM	16.4 µM	14.3 µM	4.72 µM	17.3 µM	8.4 µM	18.5 µM	19.9 µM	15.8 µM	31.7 µM	16.9 µM	
c1cncc(C2ONC3=NCCN32)c1 (centres undefined)	> 100 µM	> 100 µM	39.2 µM	> 100 µM	96.3 µM		> 100 µM	> 100 µM	> 100 µM	9.59 µM	40.5 µM	6.22 µM	69.7 µM	> 100 µM	26.2 µM		15.8 µM	> 100 µM	58.3 µM	20.9 µM
COc1cc2cc3c(c(O)c2c(O)c1-c1c(OC)cc2cc4c(c(O)c2c1O)C(=O)O[C@H](C)C4)C(=O)O[C@H](C)C3	> 100 µM	> 100 µM	64.8 µM	99.2 µM	> 100 µM		84 µM	> 100 µM	99.1 µM	44.3 µM	39.3 µM	21.1 µM	32.3 µM	33 µM	26.5 µM		15.9 µM	31.2 µM	94.2 µM	24.4 µM
C=C(Cl)[C@@](Cl)(CBr)CC[C@@H](Br)C(C)(C)Cl	34.5 µM and 43.5 µM	4.12 µM and 4.11 µM	0.286 µM and 0.247 µM	1.54 µM and 1.52 µM	2.37 µM and 0.488 µM	1.48 µM and 0.473 µM	22.2 µM and 26.3 µM	7.39 µM and 3.22 µM			1.67 µM	0.0733 µM	0.358 µM		8 µM	0.0688 µM	0.213 µM	1.18 µM and 1.82 µM	2.45 µM	0.346 µM
COc1ccc2c(c1)[n+](=O)c(C(C)=O)c(C)n2[O-]	> 100 µM	> 100 µM	> 100 µM	> 100 µM	> 100 µM	> 100 µM	> 100 µM	> 100 µM	> 100 µM											
COc1ccc(-c2cc(-c3ccccc3)nc(NCCNc3ccnc4cc(Cl)ccc34)n2)cc1	3.8 µM	3.55 µM	3.35 µM	3.68 µM			3.34 µM	3.3 µM	3.35 µM	1.87 µM	1.82 µM	1.72 µM	1.77 µM	1.73 µM	1.78 µM		1.77 µM	3.28 µM	1.76 µM	
O=c1[nH]c2ccc([N+](=O)[O-])c(Cl)c2c2ccccc12	11.7 µM	> 100 µM	48.3 µM	10.5 µM		33.7 µM	4.86 µM	35.4 µM	25.8 µM									11.7 µM		
CCOc1ccc(Nc2nc(-c3c(C)nc4ncccn34)cs2)cc1	1.57 µM	20.5 µM	18.4 µM	23.5 µM		14.5 µM	5.48 µM	19 µM	20.7 µM	< 0.01 µM	0.0268 µM	0.0392 µM	0.0538 µM	0.0673 µM	0.017 µM	0.0366 µM	0.0431 µM	19.2 µM	0.0362 µM	
CC(=O)OCC1OC(n2c(=S)n(-c3ccccc3)c(=O)c3cc(Br)cc(Br)c32)C(OC(C)=O)C(OC(C)=O)C1OC(C)=O (centres undefined)	> 100 µM and 84.7 µM	> 100 µM	> 100 µM	85.5 µM and > 100 µM	76.3 µM and > 100 µM	> 100 µM	> 100 µM	> 100 µM	> 100 µM	> 100 µM and 28.6 µM		25.7 µM and 98.7 µM	28.5 µM and 71.1 µM		45.1 µM and > 100 µM	33.3 µM				19.4 µM and 64.2 µM
Clc1ccc2c(NCCCN3CCN(c4nc(N5CCOCC5)nc5ccccc45)CC3)ccnc2c1	3.73 µM		3.03 µM		3.1 µM	3.46 µM		6.34 µM	3.37 µM	1.97 µM		1.59 µM		1.88 µM		1.15 µM			2.5 µM	1.65 µM

— PubChem BioAssay (NCI)
